This passage reports IC50 results from US11098063B2, “Diazabicyclic substituted imidazopyrimidines and their use for the treatment of breathing disorders” (Bayer Aktiengesellschaft, priority 2017, dated 2021).

Molecules are shown by their SMILES.

One assay deals with human TASK-3 (Homo sapiens (Human), UniProt Q9NPC2). Briefly: Inhibition of recombinant TASK-3 in stably transfected CHO cells (voltage-sensitive dye, KCl depolarization). The note with it: depolarization by 40 mM potassium chloride. The assay is classed as cell-based. The procedure:
(§1) B-2. Inhibition of Recombinant TASK-1 and TASK-3 In Vitro
(§2) The investigations on the inhibition of the recombinant TASK-1 and TASK-3 channels were conducted using stably transfected CHO cells. The compounds according to the invention were tested in this case by application of 40 mM potassium chloride in the presence of a voltage-sensitive dye according to the method described in detail in the following references [Whiteaker et al., Validation of FLIPR membrane potential dye for high-throughput screening of potassium channel modulators, J. Biomol. Screen. 6 (5), 305-312 (2001); Molecular Devices FLIPR Application Note: Measuring membrane potential using the FLIPR® membrane potential assay kit on Fluorometric Imaging Plate Reader (FLIPR®) systems, http://www.moleculardevices.com/reagents-supplies/assay-kits/ion-channels/flipr-membrane-potential-assay-kits]. The activity of the test substances was determined as their ability to inhibit a depolarization induced in the recombinant cells by 40 mM potassium chloride. The concentration which can block half of this depolarization is referred to as IC50.

In a further assay the target is human TASK-1 (Homo sapiens (Human), UniProt O14649). Briefly: Inhibition of recombinant TASK-1 in stably transfected CHO cells (voltage-sensitive dye, KCl depolarization). The assay is classed as cell-based. The note with it: depolarization by 40 mM potassium chloride. The protocol: as §1, §2
Sequence of human TASK-1 (O14649 whole entry): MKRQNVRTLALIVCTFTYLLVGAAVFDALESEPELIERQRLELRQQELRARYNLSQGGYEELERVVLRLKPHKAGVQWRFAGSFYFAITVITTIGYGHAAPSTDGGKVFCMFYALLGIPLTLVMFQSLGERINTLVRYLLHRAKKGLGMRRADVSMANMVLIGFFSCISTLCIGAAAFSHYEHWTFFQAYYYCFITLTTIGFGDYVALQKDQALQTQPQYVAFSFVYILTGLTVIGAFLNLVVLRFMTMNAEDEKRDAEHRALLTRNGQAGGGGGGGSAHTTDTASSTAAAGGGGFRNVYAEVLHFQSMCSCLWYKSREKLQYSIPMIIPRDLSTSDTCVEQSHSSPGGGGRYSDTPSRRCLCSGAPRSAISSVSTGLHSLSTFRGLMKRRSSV

Sequence of human TASK-3 (Q9NPC2 whole entry): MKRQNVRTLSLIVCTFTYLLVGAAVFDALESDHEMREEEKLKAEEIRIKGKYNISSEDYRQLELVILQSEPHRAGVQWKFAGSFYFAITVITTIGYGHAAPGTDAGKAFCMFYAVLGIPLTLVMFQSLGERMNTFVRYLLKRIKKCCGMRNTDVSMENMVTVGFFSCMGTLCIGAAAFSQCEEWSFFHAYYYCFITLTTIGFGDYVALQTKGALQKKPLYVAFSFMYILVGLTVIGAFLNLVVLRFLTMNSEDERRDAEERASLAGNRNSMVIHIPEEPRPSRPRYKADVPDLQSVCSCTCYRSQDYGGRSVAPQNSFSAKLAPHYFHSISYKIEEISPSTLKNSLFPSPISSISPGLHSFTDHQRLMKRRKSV

`CC(C)c1ccc(-c2nc3ncccn3c2CN2CC3CCC2CN3C(=O)OC(C)(C)C)cc1` (racemic) [Example 7, tert-Butyl 5-{[2-(4-isopropylphenyl)imidazo[1,2-a]pyrimidine-3-yl]methyl}-2,5-diazabicyclo[2.2.2]octane-2-carboxylate]: the IC50 at human TASK-3 was 570 nM; at human TASK-1, 8600 nM.
In the same order, the values of `CC(c1c(-c2ccc(Cl)cc2)nc2ncccn12)N1CC2CCC(C1)N2C(=O)OC(C)(C)C` (racemic) [Example 10, tert-Butyl 3-{1-[2-(4-chlorophenyl)imidazo[1,2-a]pyrimidin-3-yl]ethyl}-3,8-diazabicyclo[3.2.1]octane-8-carboxylate] are 130 nM and 2200 nM.
The like results for `CC(C)(C)OC(=O)N1CC2CCC1CN2Cc1c(-c2ccc(Cl)cc2)nc2ncccn12` (single isomer, unassigned) [Example 4, tert-Butyl 5-{[2-(4-chlorophenyl)imidazo[1,2-a]pyrimidin-3-yl]methyl}-2,5-diazabicyclo[2.2.2]octane-2-carboxylate] were, in that order, 97 nM and 470 nM.
On to `CC(C)(C)OC(=O)N1CC2CCC1CN2Cc1c(-c2ccc(Cl)cc2)nc2ncccn12` (single isomer, unassigned) [Example 5, tert-Butyl 5-{[2-(4-chlorophenyl)imidazo[1,2-a]pyrimidin-3-yl]methyl}-2,5-diazabicyclo[2.2.2]octane-2-carboxylate], for which the IC50 was 1300 nM on human TASK-3 and 17000 nM on human TASK-1.
In the same order, the values of `COc1ccc(Cl)c(C(=O)N2CC3CCC2CN3Cc2c(-c3ccc(Cl)cc3)nc3ncccn23)n1` (single isomer, unassigned) [Example 23, (3-Chloro-6-methoxypyridin-2-yl)(5-{[2-(4-chlorophenyl)imidazo[1,2-a]pyrimidin-3-yl]methyl}-2,5-diazabicyclo[2.2.2]oct-2-yl)methanone] are 100 nM and 1600 nM.
Turning to `COc1ccc(F)c(C(=O)N2CC3CCC2CN3Cc2c(-c3ccc(Cl)cc3)nc3ncccn23)n1` (single isomer, unassigned) [Example 24, (5-{[2-(4-Chlorophenyl)imidazo[1,2-a]pyrimidin-3-yl]methyl}-2,5-diazabicyclo[2.2.2]oct-2-yl)(3-fluoro-6-methoxypyridin-2-yl)methanone], the IC50 at human TASK-3 amounted to 102 nM; at human TASK-1, 410 nM.
Regarding `COc1ccc(C)c(C(=O)N2CC3CCC2CN3Cc2c(-c3ccc(Cl)cc3)nc3ncccn23)n1` (single isomer, unassigned) [Example 25, (5-{[2-(4-Chlorophenyl)imidazo[1,2-a]pyrimidin-3-yl]methyl}-2,5-diazabicyclo[2.2.2]oct-2-yl)(6-methoxy-3-methylpyridin-2-yl)methanone], the half-inhibitory concentration (IC50) at human TASK-3 is 71 nM; at human TASK-1, 1100 nM.
In the same order, the values of `CC(C)(C)OC(=O)N1C2COCC1CN(Cc1c(-c3ccc(Cl)cc3)nc3ncccn13)C2` [Example 1, tert-Butyl 7-{[2-(4-chlorophenyl)imidazo[1,2-a]pyrimidin-3-yl]methyl}-3-oxa-7,9-diazabicyclo[3.3.1]nonane-9-carboxylate] are 400 nM and 1700 nM.
The like results for `CC(C)(C)OC(=O)N1C2CCC1CN(Cc1c(-c3ccc(Cl)cc3)nc3ncccn13)C2` [Example 6, tert-Butyl 3-{[2-(4-chlorophenyl)imidazo[1,2-a]pyrimidin-3-yl]methyl}-3,8-diazabicyclo[3.2.1]octane-8-carboxylate] were, in that order, 41 nM and 1400 nM.
The like results for `CC(C)(C)OC(=O)N1CC2CCC1CN2Cc1c(-c2ccc(Br)cc2)nc2ncccn12` (stereo not shown) [Example 11] were, in that order, 16 nM and 2500 nM.
For the compound `CC(C)(C)OC(=O)N1C2CCC1CN(Cc1c(-c3ccc(Br)cc3)nc3ncccn13)C2` [Example 12], the IC50 amounted to 13 nM at human TASK-3 and 220 nM on human TASK-1.
In the same order, the values of `COc1cccc(C(=O)N2C3COCC2CN(Cc2c(-c4ccc(Cl)cc4)nc4ncccn24)C3)n1` [Example 13, (7-{[2-(4-Chlorophenyl)imidazo[1,2-a]pyrimidin-3-yl]methyl}-3-oxa-7,9-diazabicyclo[3.3.1]non-9-yl)(6-methoxypyridin-2-yl)methanone] are 33 nM and 1500 nM.
In the same order, the values of `COc1ccc(Cl)c(C(=O)N2C3COCC2CN(Cc2c(-c4ccc(Cl)cc4)nc4ncccn24)C3)n1` [Example 14, (3-Chloro-6-methoxypyridin-2-yl)(7-{[2-(4-chlorophenyl)imidazo[1,2-a]pyrimidin-3-yl]methyl}-3-oxa-7,9-diazabicyclo[3.3.1]non-9-yl)methanone] are 170 nM and 7600 nM.
In the same order, the values of `COc1ccc(F)c(C(=O)N2C3COCC2CN(Cc2c(-c4ccc(Cl)cc4)nc4ncccn24)C3)n1` [Example 15, (7-{[2-(4-Chlorophenyl)imidazo[1,2-a]pyrimidin-3-yl]methyl}-3-oxa-7,9-diazabicyclo[3.3.1]non-9-yl)(3-fluoro-6-methoxypyridin-2-yl)methanone] are 19 nM and 1100 nM.
In the case of `CSc1cccc(C(=O)N2C3COCC2CN(Cc2c(-c4ccc(Cl)cc4)nc4ncccn24)C3)n1` [Example 16, (7-{[2-(4-Chlorophenyl)imidazo[1,2-a]pyrimidin-3-yl]methyl}-3-oxa-7,9-diazabicyclo[3.3.1]non-9-yl)[6-(methylsulfanyl)pyridin-2-yl]methanone], the IC50 at human TASK-3 worked out at 12 nM; on human TASK-1, 670 nM.
In the same order, the values of `O=C(C1CCCC1)N1C2COCC1CN(Cc1c(-c3ccc(Cl)cc3)nc3ncccn13)C2` [Example 17, (7-{[2-(4-Chlorophenyl)imidazo[1,2-a]pyrimidin-3-yl]methyl}-3-oxa-7,9-diazabicyclo[3.3.1]non-9-yl)(cyclopentyl)methanone] are 33 nM and 1200 nM.
The like results for `COc1ccc(F)c(C(=O)N2C3COCC2CN(Cc2c(-c4ccc(C(C)C)cc4)nc4ncccn24)C3)n1` [Example 18, (3-Fluoro-6-methoxypyridin-2-yl)(7-{[2-(4-isopropylphenyl)imidazo[1,2-a]pyrimidin-3-yl]methyl}-3-oxa-7,9-diazabicyclo[3.3.1]non-9-yl)methanone] were, in that order, 8.6 nM and 910 nM.
The like results for `COc1cccc(C(=O)N2C3CCC2CN(Cc2c(-c4ccc(Cl)cc4)nc4ncccn24)C3)n1` [Example 20, (3-{[2-(4-Chlorophenyl)imidazo[1,2-a]pyrimidin-3-yl]methyl}-3,8-diazabicyclo[3.2.1]oct-8-yl)(6-methoxypyridin-2-yl)methanone] were, in that order, 38 nM and 160 nM.
On to `COc1ccc(F)c(C(=O)N2C3CCC2CN(Cc2c(-c4ccc(Cl)cc4)nc4ncccn24)C3)n1` [Example 22, (3-{[2-(4-Chlorophenyl)imidazo[1,2-a]pyrimidin-3-yl]methyl}-3,8-diazabicyclo[3.2.1]oct-8-yl)(3-fluoro-6-methoxypyridin-2-yl)methanone], for which the figures for the IC50 at human TASK-3 and at human TASK-1 were 5.2 nM and 340 nM, respectively.
The like results for `O=C(c1ccccc1F)N1C2COCC1CN(Cc1c(-c3ccc(Cl)cc3)nc3ncccn13)C2` [Example 30] were, in that order, 85 nM and 3500 nM.
In the same order, the values of `COc1cccc(C(=O)N2C3COCC2CN(Cc2c(-c4ccc(Cl)cc4)nc4ncccn24)C3)c1` [Example 31] are 140 nM and 7100 nM.
The like results for `O=C(c1ccccc1F)N1C2CCC1CN(Cc1c(-c3ccc(Cl)cc3)nc3ncccn13)C2` [Example 32] were, in that order, 29 nM and 370 nM.
For the compound `CSc1cccc(C(=O)N2C3CCC2CN(Cc2c(-c4ccc(Cl)cc4)nc4ncccn24)C3)n1` [Example 33], the IC50 was 130 nM on human TASK-3 and 190 nM at human TASK-1.
Consider `O=C(C1CCCC1)N1C2CCC1CN(Cc1c(-c3ccc(Cl)cc3)nc3ncccn13)C2` [Example 34], for which the IC50 at human TASK-3 stood at 29 nM; on human TASK-1, 76 nM.
The like results for `COc1cccc(C(=O)N2C3CCC2CN(Cc2c(-c4ccc(Cl)cc4)nc4ncccn24)C3)c1` [Example 36] were, in that order, 80 nM and 310 nM.
In the same order, the values of `O=C(C1CCCC1)N1CC2CCC1CN2Cc1c(-c2ccc(Cl)cc2)nc2ncccn12` (stereo not shown) [Example 37] are 140 nM and 1500 nM.
In the same order, the values of `COc1cccc(C(=O)N2CC3CCC2CN3Cc2c(-c3ccc(Cl)cc3)nc3ncccn23)c1` (stereo not shown) [Example 38] are 320 nM and 9600 nM.
`O=C(c1ccccc1F)N1CC2CCC1CN2Cc1c(-c2ccc(Cl)cc2)nc2ncccn12` (stereo not shown) [Example 39]: the IC50 at human TASK-3 worked out at 160 nM; at human TASK-1, 1400 nM.
The like results for `COc1cccc(C(=O)N2CC3CCC2CN3Cc2c(-c3ccc(Cl)cc3)nc3ncccn23)n1` (stereo not shown) [Example 40] were, in that order, 210 nM and 5700 nM.
The like results for `O=C(c1ccccc1F)N1CC2CCC1CN2Cc1c(-c2ccc(Cl)cc2)nc2ncccn12` (stereo not shown) [Example 42] were, in that order, 340 nM and 1000 nM.
In the same order, the values of `COc1cccc(C(=O)N2CC3CCC2CN3Cc2c(-c3ccc(Cl)cc3)nc3ncccn23)c1` (stereo not shown) [Example 43] are 320 nM and 1000 nM.
`COc1cccc(C(=O)N2CC3CCC2CN3Cc2c(-c3ccc(Cl)cc3)nc3ncccn23)n1` (stereo not shown) [Example 44]: the IC50 on human TASK-3 came out at 190 nM; at human TASK-1, 1000 nM.

As a reminder, the IC50 is the concentration at which inhibition is half-maximal.
